Consider 8 molecules from patent US20140057915A1, “KINASE INHIBITORS” (TOPIVERT PHARMA LIMITED, priority 2012, published 2014).

The test system of data set [1] is TNFα release, d-U937 cells. As to the kind of experiment: LPS-induced TNFα release in d-U937 cells. Format: cell-based. The following applies: Homo sapiens, dU937; relative to 10 μg/mL BIRB796; Table 4c1; read-out: LPS Induced Release of Cytokine in d-U937 Cells, TNFα REC50. An outline of the steps: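 U937 cells differentiated with PMA (100 ng/mL, 48–72 hr), pre-treated with compound for 2 hr, then stimulated with E. coli LPS (0.1 μg/mL) for 4 hr. Supernatant cytokine measured by sandwich ELISA; inhibition versus vehicle control, REC50 from concentration-response curve.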

The test system of data set [2] is IL-8 release, d-U937 cells. As to the kind of experiment: LPS-induced IL-8 release in d-U937 cells. Format: cell-based. As to conditions: Homo sapiens, dU937; Table 4c1; read-out: LPS Induced Release of Cytokine in d-U937 Cells, IL-8 IC50. An outline of the steps:
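IL-8 release after a 4 hr challenge with LPS (0.1 μg/mL, E. coli 0111:B4) following a 2 hr compound pretreatment. Cells were human U937 monocytes differentiated to macrophage-type with PMA 100 ng/mL for 48–72 hr. Relative 50% effective concentration derived from concentration–response data.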

The target of data set [3] is Syk (Homo sapiens, UniProt P43405). As to the kind of experiment: Syk enzyme inhibition (FRET). As to conditions: Table 4a1. Format: biochemical. An outline of the steps:
(§1)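 Kinase activity is measured on a dual-labelled synthetic peptide by FRET. ATP is supplied as an 800 μM solution for c-Src and a 60 μM solution for Syk. Compound is tested at four added concentrations, 4 to 0.004 μg/mL.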

The target in data set [4] is cSrc (Homo sapiens, UniProt P12931). As to the kind of experiment: c-Src enzyme inhibition (FRET). It is filed as biochemical. The following applies: Table 4a1. An outline of the steps: as §1
Chain of cSrc (P12931 whole entry): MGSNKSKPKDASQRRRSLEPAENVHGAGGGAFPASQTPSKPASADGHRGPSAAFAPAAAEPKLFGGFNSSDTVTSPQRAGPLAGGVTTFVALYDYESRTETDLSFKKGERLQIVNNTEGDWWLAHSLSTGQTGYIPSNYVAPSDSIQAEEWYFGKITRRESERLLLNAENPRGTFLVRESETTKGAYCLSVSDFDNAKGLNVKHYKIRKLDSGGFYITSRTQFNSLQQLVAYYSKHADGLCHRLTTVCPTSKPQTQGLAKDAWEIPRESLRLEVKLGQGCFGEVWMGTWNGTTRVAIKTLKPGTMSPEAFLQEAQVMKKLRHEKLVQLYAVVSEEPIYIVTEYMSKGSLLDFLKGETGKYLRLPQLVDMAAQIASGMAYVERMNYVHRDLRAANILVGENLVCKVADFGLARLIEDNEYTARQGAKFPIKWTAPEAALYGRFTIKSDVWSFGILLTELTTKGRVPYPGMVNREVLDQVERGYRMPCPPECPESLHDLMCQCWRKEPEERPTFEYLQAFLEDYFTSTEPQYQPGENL
In data set [5] the test system is d-U937 cells. As to the kind of experiment: Cell viability: MTT assay. Format: cell-based, human. The following applies: 1 μg/mL. An outline of the steps: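 Differentiated U937 cells exposed to compound at 1 or 10 μg/mL, either 4 h in 5% FCS or 24 h in 10% FCS RPMI1640. MTT then added for 1 h, formazan dissolved in DMSO and read at 550 nm. Viability loss given as % versus 0.5% DMSO vehicle; apparent gains appear negative.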

Data set [6] has as its target GSK3α (Homo sapiens, UniProt P49840). As to the kind of experiment: GSK 3α enzyme inhibition (FRET), Method 1. It is filed as biochemical. As to conditions: Table 4a1. An outline of the steps:
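Compounds are tested at added-solution levels of 4, 0.4, 0.04 or 0.004 μg/mL against GSK3α, with a 2 hr RT preincubation. Kinase reaction with FRET peptide and ATP (8 μM and 40 μM as added) runs 1 hr, and phosphorylation is judged by the protease-sensitive FRET ratio.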

Data set [7] has as its system ICAM-1 expression, BEAS2B cells. In words: Poly I:C-induced ICAM-1 expression in BEAS2B cells. It is filed as cell-based. As to conditions: Homo sapiens, BEAS-2B; read-out: Poly IC induced ICAM1 in BEAS2B, IC50. An outline of the steps: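 BEAS2B human bronchial epithelial cells pre-incubated 2 h with compound, then transfected with poly I:C (1 μg/mL) plus Oligofectamine. After 18 h, cell-surface ICAM-1 read by cell-based ELISA (A450–655), normalised to Crystal Violet cell number (A595); inhibition calculated against vehicle control at each concentration.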

Chain of GSK3α (P49840 whole entry): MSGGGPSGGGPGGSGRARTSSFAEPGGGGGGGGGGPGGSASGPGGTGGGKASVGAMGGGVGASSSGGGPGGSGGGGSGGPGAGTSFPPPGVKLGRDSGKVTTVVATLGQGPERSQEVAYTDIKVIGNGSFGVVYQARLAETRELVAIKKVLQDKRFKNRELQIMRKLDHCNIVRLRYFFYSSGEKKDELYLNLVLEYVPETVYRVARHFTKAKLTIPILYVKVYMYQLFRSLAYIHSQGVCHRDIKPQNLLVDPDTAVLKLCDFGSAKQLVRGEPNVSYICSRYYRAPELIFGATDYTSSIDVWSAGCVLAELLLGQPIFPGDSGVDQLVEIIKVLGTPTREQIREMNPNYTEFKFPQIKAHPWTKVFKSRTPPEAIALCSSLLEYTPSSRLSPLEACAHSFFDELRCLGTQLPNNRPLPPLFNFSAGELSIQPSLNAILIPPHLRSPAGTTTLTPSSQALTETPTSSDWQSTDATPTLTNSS

Regarding `COc1ccc(-n2nc(C3CCCO3)cc2NC(=O)Nc2ccc(Oc3ccnc(Nc4cc(OC)cc(C(=O)NCCN5CCOCC5)c4)n3)c3ccccc23)cc1` (stereo not shown) [Example 58, 3-methoxy-5-((4-((4-(3-(1-(4-methoxyphenyl)-3-(tetrahydrofuran-2-yl)-1H-pyrazol-5-yl)ureido)naphthalen-1-yl)oxy)pyrimidin-2-yl)amino)-N-(2-morpholinoethyl)benzamide], in data set [1], the EC50 turned out to be 11.7 nM. The IC50 in data set [2] was 46.3 nM; in data set [3] it was 296 nM; in data set [4], < 1 nM; in data set [6] it was 8470 nM; in data set [7], 2.1 nM. For the same molecule, the “Cell viability at time point in d-U937 cells, 4 h” value in data set [5] was “−ve (−ve and +ve indicate that the value is below and above respectively, the no significant effect threshold, defined as 30% inhibition at 1 μg/mL at the time point indicated)”. Moreover, the “Cell viability at time point in d-U937 cells, 24 h” value (from here on “Cell viability at time point … 24 h”) in data set [5] was “−ve (−ve and +ve indicate that the value is below and above respectively, the no significant effect threshold, defined as 30% inhibition at 1 μg/mL at the time point indicated)”.

`COc1ccc(-n2nc(C3CCOC3)cc2NC(=O)Nc2ccc(Oc3ccnc(Nc4cc(OC)cc(C(=O)NCCN5CCOCC5)c4)n3)c3ccccc23)cc1` (stereo not shown) [Example 59, 3-methoxy-5-((4-((4-(3-(1-(4-methoxyphenyl)-3-(tetrahydrofuran-3-yl)-1H-pyrazol-5-yl)ureido)naphthalen-1-yl)oxy)pyrimidin-2-yl)amino)-N-(2-morpholinoethyl)benzamide]: the EC50 in data set [1] is 2 nM. Moreover, the half-inhibitory concentration (IC50) is 6.8 nM in data set [2]; 12 nM in data set [3]; < 1 nM in data set [4]; 1190 nM in data set [6]; 39.7 nM in data set [7]. The “Cell viability at time point in d-U937 cells, 4 h” value in data set [5] is “−ve (−ve and +ve indicate that the value is below and above respectively, the no significant effect threshold, defined as 30% inhibition at 1 μg/mL at the time point indicated)”. Further, the “Cell viability at time point … 24 h” value in data set [5] is “−ve (−ve and +ve indicate that the value is below and above respectively, the no significant effect threshold, defined as 30% inhibition at 1 μg/mL at the time point indicated)”.

On to `Cc1ccc(-n2nc(C(C)C)cc2NC(=O)Nc2ccc(Oc3ccnc(Nc4cc(Cl)cc(C(=O)NCCN5CCOCC5)c4)n3)c3ccccc23)cc1` [Example 60, 3-chloro-5-((4-((4-(3-(3-isopropyl-1-(p-tolyl)-1H-pyrazol-5-yl)ureido)naphthalen-1-yl)oxy)pyrimidin-2-yl)amino)-N-(2-morpholinoethyl)benzamide], for which the EC50 in data set [1] stood at 1.1 nM. Further, the half-maximal inhibitory concentration (IC50) was 3.9 nM in data set [2]; 60 nM in data set [3]; 13 nM in data set [4]; > 13200 nM in data set [6]; 132 nM in data set [7]. Further, the “Cell viability at time point in d-U937 cells, 4 h” value in data set [5] is “−ve (−ve and +ve indicate that the value is below and above respectively, the no significant effect threshold, defined as 30% inhibition at 1 μg/mL at the time point indicated)”. Moreover, in data set [5], the “Cell viability at time point … 24 h” value was “−ve (−ve and +ve indicate that the value is below and above respectively, the no significant effect threshold, defined as 30% inhibition at 1 μg/mL at the time point indicated)”.

On to `COc1ccc(-n2nc(C(C)C)cc2NC(=O)Nc2ccc(Oc3ccnc(Nc4cc(Cl)cc(C(=O)NCCN5CCOCC5)c4)n3)c3ccccc23)cc1` [Example 61, 3-chloro-5-((4-((4-(3-(3-isopropyl-1-(4-methoxyphenyl)-1H-pyrazol-5-yl)ureido)naphthalen-1-yl)oxy)pyrimidin-2-yl)amino)-N-(2-morpholinoethyl)benzamide], for which the EC50 in data set [1] was 1.1 nM. The IC50 was found to be 2 nM in data set [2]; 32 nM in data set [3]; 9 nM in data set [4]; 6940 nM in data set [6]; 129 nM in data set [7]. For the same molecule, the “Cell viability at time point in d-U937 cells, 4 h” value in data set [5] is “−ve (−ve and +ve indicate that the value is below and above respectively, the no significant effect threshold, defined as 30% inhibition at 1 μg/mL at the time point indicated)”. Further, the “Cell viability at time point … 24 h” value in data set [5] was “−ve (−ve and +ve indicate that the value is below and above respectively, the no significant effect threshold, defined as 30% inhibition at 1 μg/mL at the time point indicated)”.

With `Cc1ccc(-n2nc(C(C)(C)C)cc2NC(=O)Nc2ccc(Oc3ccnc(Nc4cc(Br)cc(C(=O)NCCN5CCOCC5)c4)n3)c3ccccc23)cc1` [Example 62, 3-bromo-5-((4-((4-(3-(3-(tert-butyl)-1-(p-tolyl)-1H-pyrazol-5-yl)ureido)naphthalen-1-yl)oxy)pyrimidin-2-yl)amino)-N-(2-morpholinoethyl)benzamide], the EC50 in data set [1] came out at 1.4 nM. Moreover, the half-maximal inhibitory concentration (IC50) was found to be 1.8 nM in data set [2]; 13 nM in data set [3]; 7 nM in data set [4]; 995 nM in data set [6]; 1 nM in data set [7]. Further, the “Cell viability at time point in d-U937 cells, 4 h” value in data set [5] was “−ve (−ve and +ve indicate that the value is below and above respectively, the no significant effect threshold, defined as 30% inhibition at 1 μg/mL at the time point indicated)”. Besides, in data set [5], the “Cell viability at time point … 24 h” value was “+ve (−ve and +ve indicate that the value is below and above respectively, the no significant effect threshold, defined as 30% inhibition at 1 μg/mL at the time point indicated)”.

Take `COc1cc(Nc2nccc(Oc3ccc(NC(=O)Nc4cc(C(C)(C)C)nn4-c4ccc(C)cc4)c4ccccc34)n2)cc(C(=O)NCCO)c1` [Example 64, 3-((4-((4-(3-(3-(tert-butyl)-1-(p-tolyl)-1H-pyrazol-5-yl)ureido)naphthalen-1-yl)oxy)pyrimidin-2-yl)amino)-N-(2-hydroxyethyl)-5-methoxybenzamide]: the EC50 in data set [1] worked out at 0.4 nM. The IC50 in data set [2] was 0.8 nM; in data set [3], 13 nM; in data set [4], 2 nM; in data set [6], 122 nM; in data set [7], 1 nM. For the same molecule, the “Cell viability at time point in d-U937 cells, 4 h” value in data set [5] was “−ve (−ve and +ve indicate that the value is below and above respectively, the no significant effect threshold, defined as 30% inhibition at 1 μg/mL at the time point indicated)”. Also, the “Cell viability at time point … 24 h” value in data set [5] is “−ve (−ve and +ve indicate that the value is below and above respectively, the no significant effect threshold, defined as 30% inhibition at 1 μg/mL at the time point indicated)”.

Turning to `COCCNC(=O)c1cc(Nc2nccc(Oc3ccc(NC(=O)Nc4cc(C(C)C)nn4-c4ccc(C)cc4)c4ccccc34)n2)cc(OC)c1` [Example 66, 3-((4-((4-(3-(3-isopropyl-1-(p-tolyl)-1H-pyrazol-5-yl)ureido)naphthalen-1-yl)oxy)pyrimidin-2-yl)amino)-5-methoxy-N-(2-methoxyethyl)benzamide], in data set [1], the EC50 turned out to be 1.6 nM. The IC50 is 3.4 nM in data set [2]; 234 nM in data set [3]; 6 nM in data set [4]; > 14300 nM in data set [6]; 2.2 nM in data set [7]. Further, the “Cell viability at time point in d-U937 cells, 4 h” value in data set [5] was “−ve (−ve and +ve indicate that the value is below and above respectively, the no significant effect threshold, defined as 30% inhibition at 1 μg/mL at the time point indicated)”. Also, the “Cell viability at time point … 24 h” value in data set [5] was “−ve (−ve and +ve indicate that the value is below and above respectively, the no significant effect threshold, defined as 30% inhibition at 1 μg/mL at the time point indicated)”.

Turning to `COCCNC(=O)c1cc(Nc2nccc(Oc3ccc(NC(=O)Nc4cc(C(C)(C)C)nn4-c4ccc(C)cc4)c4ccccc34)n2)cc(OC)c1` [Example 67, 3-((4-((4-(3-(3-(tert-butyl)-1-(p-tolyl)-1H-pyrazol-5-yl)ureido)naphthalen-1-yl)oxy)pyrimidin-2-yl)amino)-5-methoxy-N-(2-methoxyethyl)benzamide], in data set [1], the EC50 was 0.1 nM. Also, the half-maximal inhibitory concentration (IC50) was 1 nM in data set [2]; 40 nM in data set [3]; 4 nM in data set [4]; 452 nM in data set [6]; 140 nM in data set [7]. Besides, the “Cell viability at time point in d-U937 cells, 4 h” value in data set [5] was “−ve (−ve and +ve indicate that the value is below and above respectively, the no significant effect threshold, defined as 30% inhibition at 1 μg/mL at the time point indicated)”. Besides, the “Cell viability at time point … 24 h” value in data set [5] is “−ve (−ve and +ve indicate that the value is below and above respectively, the no significant effect threshold, defined as 30% inhibition at 1 μg/mL at the time point indicated)”.
